Laboratory results taken from patent publication US6890736B1, “Methods for producing proteins in cultured cells” (Immunex Corporation, priority 2002, dated 2005).

Key:
Assay type in all cases: cell-based, Chinese hamster
[1] = Example 2: cell number and viability; details: Chinese hamster; for viability at 6 day, 10 μM / viability at 8 day, 10 μM / viability at 0 day, 10 μM / viability at 3 day, 10 μM: 10 μM decitabine; for viability at 6 day, 10 μM / viability at 6 day, 15 μM / viability at 6 day, 20 μM: day 6; for viability at 8 day, 10 μM / viability at 8 day, 15 μM / viability at 8 day, 20 μM: day 8; for viability at 0 day, 15 μM / viability at 3 day, 15 μM / viability at 6 day, 15 μM / viability at 8 day, 15 μM: 15 μM decitabine; for viability at 0 day, 15 μM / viability at 0 day, 20 μM / viability at 0 day, 10 μM: day 0; for viability at 3 day, 15 μM / viability at 3 day, 20 μM / viability at 3 day, 10 μM: day 3; for viability at 0 day, 20 μM / viability at 3 day, 20 μM / viability at 6 day, 20 μM / viability at 8 day, 20 μM: 20 μM decitabine
Procedure: (§1) About 2×10^6 cells of cell line 25H9 were inoculated into 30 milliliters of serum-free medium and incubated at the temperatures indicated in Table 1 in vented shake flasks. At the times indicated in Table 1, samples were taken from each flask to determine IL-1R-II titer, cell number, and cell viability. IL-1R-II protein titer was determined by ELISA assay. Cell number was determined by counting cells in a hemocytometer. Cell viability was determined by trypan blue staining and counting stained cells in a hemocytometer. Cumulative viable cell density (CVCD) is the area under the curve of a plot of the viable cell density versus time (in units of cells/ml/day). Productivity (pg of IL-1R-II/cell/day) was determined by dividing the protein titer on a particular day by the CVCD on the same day. Cells were fed with amino acids on days 2 and 5, and dextrose was added periodically in order to maintain levels above 2.0 g/L. All samples were done in duplicate, and the data shown is an average value.
(§2) To determine an optimum temperature and decitabine concentration, three temperatures (30° C., 31° C., and 32° C.) and three decitabine concentrations (10 μM, 15 μM, and 20 μM) were tested. A 31° C. culture containing 0.5 mM sodium butyrate was grown as a control. […] See e.g. International Application Nos. WO 89/06686 and WO 87/05626. The experiment was performed as in Example 1 except that the inducer concentrations, temperatures, and days at which data was collected are as indicated in Table 2 and FIG. 1.

[2] = system: cell line 25H9 (CHO cells); experiment: Example 2: cell number and viability
Procedure: as §1, §2

[3] = system: cell line 25H9 (CHO cells that produce IL-1R-II protein); experiment: Example 3: induction with 5-bromo-2′-deoxycytidine 5′-monophosphate, IL-1R-II production; details: 31° C., 10 μM
Procedure: as §1
The following experiment compares the effects of 5-bromo-2′-deoxycytidine 5′-monophosphate and 5-aza-2′-deoxycytidine on induction of protein production. The experiment was done as described in Example 1 with the following exceptions. All cultures were incubated at 31° C., and cell number and viability were determined using a Guava PCA Cytometer (available from Guava Technologies, Hayward, Calif., USA). Samples were done in triplicate.

[4] = CHO cell line 25H9 producing IL-1R-II, 30° C.
[5] = cell line 25H9 (CHO cells), 30° C.
[6] = cell line 25H9 (CHO cells), 31° C.
[7] = cell line 25H9 (CHO cells), 32° C.
[8] = 30° C., 10 μM decitabine, day 0
[9] = 30° C., 10 μM decitabine, day 3
[10] = 30° C., 10 μM decitabine, day 6
[11] = 30° C., 10 μM decitabine, day 8
[12] = 30° C., 15 μM decitabine, day 0
[13] = 30° C., 15 μM decitabine, day 3
[14] = 30° C., 15 μM decitabine, day 6
[15] = 30° C., 15 μM decitabine, day 8
[16] = 30° C., 20 μM decitabine, day 0
[17] = 30° C., 20 μM decitabine, day 3
[18] = 30° C., 20 μM decitabine, day 6
[19] = 30° C., 20 μM decitabine, day 8
[20] = 31° C., 10 μM decitabine, day 0
[21] = 31° C., 10 μM decitabine, day 3
[22] = 31° C., 10 μM decitabine, day 6
[23] = 31° C., 10 μM decitabine, day 8
[24] = 31° C., 15 μM decitabine, day 0
[25] = 31° C., 15 μM decitabine, day 3
[26] = 31° C., 15 μM decitabine, day 6
[27] = 31° C., 15 μM decitabine, day 8
[28] = 31° C., 20 μM decitabine, day 0
[29] = 31° C., 20 μM decitabine, day 3
[30] = 31° C., 20 μM decitabine, day 6
[31] = 31° C., 20 μM decitabine, day 8
[32] = 32° C., 10 μM decitabine, day 0
[33] = 32° C., 10 μM decitabine, day 3
[34] = 32° C., 10 μM decitabine, day 6
[35] = 32° C., 10 μM decitabine, day 8
[36] = 32° C., 15 μM decitabine, day 0
[37] = 32° C., 15 μM decitabine, day 3
[38] = 32° C., 15 μM decitabine, day 6
[39] = 32° C., 15 μM decitabine, day 8
[40] = 32° C., 20 μM decitabine, day 0
[41] = 32° C., 20 μM decitabine, day 3
[42] = 32° C., 20 μM decitabine, day 6
[43] = 32° C., 20 μM decitabine, day 8

Compound: Nc1ncn([C@H]2C[C@H](O)[C@@H](CO)O2)c(=O)n1 [decitabine, 5-aza-2′-deoxycytidine]
- viability at 6 day, 10 μM [1, 4]: 70.3%
- viability at 8 day, 10 μM [1, 4]: 49%
- viability at 0 day, 15 μM [1, 4]: 94.2%
- viability at 3 day, 15 μM [1, 4]: 88.9%
- viability at 6 day, 15 μM [1, 4]: 85.9%
- viability at 8 day, 15 μM [1, 4]: 33.2%
- viability at 0 day, 20 μM [1, 4]: 94.2%
- viability at 3 day, 20 μM [1, 4]: 93.3%
- viability at 6 day, 20 μM [1, 4]: 77%
- viability at 8 day, 20 μM [1, 4]: 48.4%
- viability at 0 day, 10 μM ([1]; CHO cell line 25H9 producing IL-1R-II, 31° C.): 94.2%
- viability at 0 day, 10 μM [1, 5]: 94.2%
- viability at 3 day, 10 μM [1, 5]: 91.8%
- viability at 3 day, 10 μM [1, 6]: 89.3%
- viability at 6 day, 10 μM [1, 6]: 79.6%
- viability at 8 day, 10 μM [1, 6]: 63.5%
- viability at 0 day, 15 μM [1, 6]: 94.2%
- viability at 3 day, 15 μM [1, 6]: 97.6%
- viability at 6 day, 15 μM [1, 6]: 78.9%
- viability at 8 day, 15 μM [1, 6]: 57.6%
- viability at 0 day, 20 μM [1, 6]: 94.2%
- viability at 3 day, 20 μM [1, 6]: 87.7%
- viability at 6 day, 20 μM [1, 6]: 77.9%
- viability at 8 day, 20 μM [1, 6]: 57.2%
- viability at 0 day, 10 μM [1, 7]: 94.2%
- viability at 3 day, 10 μM [1, 7]: 85.4%
- viability at 6 day, 10 μM [1, 7]: 71.7%
- viability at 8 day, 10 μM [1, 7]: 42.3%
- viability at 0 day, 15 μM [1, 7]: 94.2%
- viability at 3 day, 15 μM [1, 7]: 87.6%
- viability at 6 day, 15 μM [1, 7]: 65.4%
- viability at 8 day, 15 μM [1, 7]: 36.1%
- viability at 0 day, 20 μM [1, 7]: 94.2%
- viability at 3 day, 20 μM [1, 7]: 89.1%
- viability at 6 day, 20 μM [1, 7]: 64.7%
- viability at 8 day, 20 μM [1, 7]: 41.1%
- Cumulative Viable Cell Density [2, 8]: 0 mL⁻¹ day⁻¹
- Viable Cell Density [2, 8]: 2e+06 mL⁻¹
- Cumulative Viable Cell Density [2, 9]: 7.4e+06 mL⁻¹ day⁻¹
- Viable Cell Density [2, 9]: 3e+06 mL⁻¹
- Cumulative Viable Cell Density [2, 10]: 1.43e+07 mL⁻¹ day⁻¹
- Viable Cell Density [2, 10]: 1.7e+06 mL⁻¹
- Cumulative Viable Cell Density [2, 11]: 1.81e+07 mL⁻¹ day⁻¹
- Viable Cell Density [2, 11]: 2.1e+06 mL⁻¹
- Cumulative Viable Cell Density [2, 12]: 0 mL⁻¹ day⁻¹
- Viable Cell Density [2, 12]: 2e+06 mL⁻¹
- Cumulative Viable Cell Density [2, 13]: 6.8e+06 mL⁻¹ day⁻¹
- Viable Cell Density [2, 13]: 2.6e+06 mL⁻¹
- Cumulative Viable Cell Density [2, 14]: 1.4e+07 mL⁻¹ day⁻¹
- Viable Cell Density [2, 14]: 2.2e+06 mL⁻¹
- Cumulative Viable Cell Density [2, 15]: 1.81e+07 mL⁻¹ day⁻¹
- Viable Cell Density [2, 15]: 1.9e+06 mL⁻¹
- Cumulative Viable Cell Density [2, 16]: 0 mL⁻¹ day⁻¹
- Viable Cell Density [2, 16]: 2e+06 mL⁻¹
- Cumulative Viable Cell Density [2, 17]: 7.9e+06 mL⁻¹ day⁻¹
- Viable Cell Density [2, 17]: 3.3e+06 mL⁻¹
- Cumulative Viable Cell Density [2, 18]: 1.63e+07 mL⁻¹ day⁻¹
- Viable Cell Density [2, 18]: 2.3e+06 mL⁻¹
- Cumulative Viable Cell Density [2, 19]: 2.04e+07 mL⁻¹ day⁻¹
- Viable Cell Density [2, 19]: 1.8e+06 mL⁻¹
- Cumulative Viable Cell Density [2, 20]: 0 mL⁻¹ day⁻¹
- Viable Cell Density [2, 20]: 2e+06 mL⁻¹
- Cumulative Viable Cell Density [2, 21]: 8.7e+06 mL⁻¹ day⁻¹
- Viable Cell Density [2, 21]: 3.9e+06 mL⁻¹
- Cumulative Viable Cell Density [2, 22]: 2.1e+07 mL⁻¹ day⁻¹
- Viable Cell Density [2, 22]: 4.3e+06 mL⁻¹
- Cumulative Viable Cell Density [2, 23]: 2.85e+07 mL⁻¹ day⁻¹
- Viable Cell Density [2, 23]: 3.2e+06 mL⁻¹
- Cumulative Viable Cell Density [2, 24]: 0 mL⁻¹ day⁻¹
- Viable Cell Density [2, 24]: 2e+06 mL⁻¹
- Cumulative Viable Cell Density [2, 25]: 7.9e+06 mL⁻¹ day⁻¹
- Viable Cell Density [2, 25]: 3.3e+06 mL⁻¹
- Cumulative Viable Cell Density [2, 26]: 1.92e+07 mL⁻¹ day⁻¹
- Viable Cell Density [2, 26]: 4.2e+06 mL⁻¹
- Cumulative Viable Cell Density [2, 27]: 2.58e+07 mL⁻¹ day⁻¹
- Viable Cell Density [2, 27]: 2.4e+06 mL⁻¹
- Cumulative Viable Cell Density [2, 28]: 0 mL⁻¹ day⁻¹
- Viable Cell Density [2, 28]: 2e+06 mL⁻¹
- Cumulative Viable Cell Density [2, 29]: 9.2e+06 mL⁻¹ day⁻¹
- Viable Cell Density [2, 29]: 4.2e+06 mL⁻¹
- Cumulative Viable Cell Density [2, 30]: 2.17e+07 mL⁻¹ day⁻¹
- Viable Cell Density [2, 30]: 4.2e+06 mL⁻¹
- Cumulative Viable Cell Density [2, 31]: 2.86e+07 mL⁻¹ day⁻¹
- Viable Cell Density [2, 31]: 2.7e+06 mL⁻¹
- Cumulative Viable Cell Density [2, 32]: 0 mL⁻¹ day⁻¹
- Viable Cell Density [2, 32]: 2e+06 mL⁻¹
- Cumulative Viable Cell Density [2, 33]: 8e+06 mL⁻¹ day⁻¹
- Viable Cell Density [2, 33]: 3.4e+06 mL⁻¹
- Cumulative Viable Cell Density [2, 34]: 1.9e+07 mL⁻¹ day⁻¹
- Viable Cell Density [2, 34]: 3.9e+06 mL⁻¹
- Cumulative Viable Cell Density [2, 35]: 2.49e+07 mL⁻¹ day⁻¹
- Viable Cell Density [2, 35]: 2.1e+06 mL⁻¹
- Cumulative Viable Cell Density [2, 36]: 0 mL⁻¹ day⁻¹
- Viable Cell Density [2, 36]: 2e+06 mL⁻¹
- Cumulative Viable Cell Density [2, 37]: 8e+06 mL⁻¹ day⁻¹
- Viable Cell Density [2, 37]: 3.4e+06 mL⁻¹
- Cumulative Viable Cell Density [2, 38]: 1.82e+07 mL⁻¹ day⁻¹
- Viable Cell Density [2, 38]: 3.4e+06 mL⁻¹
- Cumulative Viable Cell Density [2, 39]: 2.41e+07 mL⁻¹ day⁻¹
- Viable Cell Density [2, 39]: 2.5e+06 mL⁻¹
- Cumulative Viable Cell Density [2, 40]: 0 mL⁻¹ day⁻¹
- Viable Cell Density [2, 40]: 2e+06 mL⁻¹
- Cumulative Viable Cell Density [2, 41]: 8.3e+06 mL⁻¹ day⁻¹
- Viable Cell Density [2, 41]: 3.6e+06 mL⁻¹
- Cumulative Viable Cell Density [2, 42]: 1.87e+07 mL⁻¹ day⁻¹
- Viable Cell Density [2, 42]: 3.3e+06 mL⁻¹
- Cumulative Viable Cell Density [2, 43]: 2.36e+07 mL⁻¹ day⁻¹
- Viable Cell Density [2, 43]: 1.6e+06 mL⁻¹
- Titer of IL-1R-II ([3]; day 0): 0.0 mg/L
- Productivity ([3]; day 2): 12.2 pg of IL-1RII/cell/day
- Titer of IL-1R-II ([3]; day 2): 58.5 mg/L
- Productivity ([3]; day 5): 13.3 pg of IL-1RII/cell/day
- Titer of IL-1R-II ([3]; day 5): 148.5 mg/L
- Productivity ([3]; day 7): 14.1 pg of IL-1RII/cell/day
- Titer of IL-1R-II ([3]; day 7): 197.5 mg/L
- Productivity ([3]; day 9): 14.9 pg of IL-1RII/cell/day
- Titer of IL-1R-II ([3]; day 9): 238.4 mg/L
